Measured values as given in ChEMBL document CHEMBL1145739, “N-(3-phenylsulfonyl-3-piperidinoyl)-phenylalanine derivatives as potent, selective VLA-4 antagonists” (Bioorg Med Chem Lett, 2003).

Experiments:
Integrin alpha-4/beta-7 = target: T1, Integrin alpha-4/beta-7 (Homo sapiens, UniProt P13612+P26010); assay: Binding affinity towards […] receptor in human RPMI-8866 B-cell line using [125I]MAdCAM-Ig as radioligand
T1 sequence (P13612 whole entry): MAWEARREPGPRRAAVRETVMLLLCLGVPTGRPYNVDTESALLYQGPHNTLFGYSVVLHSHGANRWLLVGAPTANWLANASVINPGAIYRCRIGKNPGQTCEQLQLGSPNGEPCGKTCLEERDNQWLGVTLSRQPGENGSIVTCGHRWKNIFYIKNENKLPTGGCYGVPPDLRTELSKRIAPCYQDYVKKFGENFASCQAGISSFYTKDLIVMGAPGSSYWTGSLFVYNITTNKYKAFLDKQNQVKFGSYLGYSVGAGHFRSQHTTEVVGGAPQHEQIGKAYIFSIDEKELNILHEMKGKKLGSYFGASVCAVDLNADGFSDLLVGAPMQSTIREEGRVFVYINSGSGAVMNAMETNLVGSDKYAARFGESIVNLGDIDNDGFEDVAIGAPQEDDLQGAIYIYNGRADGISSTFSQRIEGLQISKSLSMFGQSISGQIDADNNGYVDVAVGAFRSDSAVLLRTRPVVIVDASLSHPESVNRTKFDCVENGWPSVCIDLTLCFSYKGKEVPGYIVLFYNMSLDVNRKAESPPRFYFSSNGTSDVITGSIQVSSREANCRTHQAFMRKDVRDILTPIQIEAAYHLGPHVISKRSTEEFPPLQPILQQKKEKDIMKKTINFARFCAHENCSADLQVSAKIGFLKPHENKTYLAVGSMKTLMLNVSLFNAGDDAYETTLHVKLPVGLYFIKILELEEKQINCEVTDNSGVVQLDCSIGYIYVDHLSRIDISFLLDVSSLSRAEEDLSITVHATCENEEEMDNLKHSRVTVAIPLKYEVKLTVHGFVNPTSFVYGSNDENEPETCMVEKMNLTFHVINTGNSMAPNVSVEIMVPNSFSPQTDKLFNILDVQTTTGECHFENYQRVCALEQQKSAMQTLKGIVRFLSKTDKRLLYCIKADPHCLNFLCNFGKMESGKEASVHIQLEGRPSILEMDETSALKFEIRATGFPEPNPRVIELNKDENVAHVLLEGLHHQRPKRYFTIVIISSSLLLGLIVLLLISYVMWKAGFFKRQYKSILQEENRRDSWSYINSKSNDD
T1 sequence (P26010 whole entry): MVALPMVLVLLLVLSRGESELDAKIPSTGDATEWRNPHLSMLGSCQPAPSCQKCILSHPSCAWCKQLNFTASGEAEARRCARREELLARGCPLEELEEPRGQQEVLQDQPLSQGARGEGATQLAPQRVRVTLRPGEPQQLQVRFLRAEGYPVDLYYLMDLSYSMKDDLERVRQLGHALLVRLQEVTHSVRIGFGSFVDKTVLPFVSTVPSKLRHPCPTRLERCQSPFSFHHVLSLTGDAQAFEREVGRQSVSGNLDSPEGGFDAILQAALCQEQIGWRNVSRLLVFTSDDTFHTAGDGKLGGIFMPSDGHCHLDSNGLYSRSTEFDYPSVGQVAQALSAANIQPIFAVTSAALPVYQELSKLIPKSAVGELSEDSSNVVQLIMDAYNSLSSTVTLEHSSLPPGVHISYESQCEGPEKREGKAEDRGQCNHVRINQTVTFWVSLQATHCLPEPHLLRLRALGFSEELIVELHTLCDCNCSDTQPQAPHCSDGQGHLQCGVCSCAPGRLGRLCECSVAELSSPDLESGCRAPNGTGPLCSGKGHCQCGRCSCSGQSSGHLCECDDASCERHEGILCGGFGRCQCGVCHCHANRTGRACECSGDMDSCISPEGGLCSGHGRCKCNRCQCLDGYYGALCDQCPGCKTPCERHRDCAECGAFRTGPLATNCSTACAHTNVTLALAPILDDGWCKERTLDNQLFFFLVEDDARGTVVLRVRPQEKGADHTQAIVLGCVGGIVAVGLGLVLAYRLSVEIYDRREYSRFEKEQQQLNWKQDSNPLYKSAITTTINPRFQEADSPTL

Integrin alpha-4/beta-1 = Integrin alpha-4/beta-1 (Homo sapiens, UniProt P05556+P13612); assay: Binding affinity towards VLA-4 (alpha4 beta-1) receptor in human Jurkat cells using [125I]VCAM-Ig as radioligand; type: cell-based
Sequence of Integrin alpha-4/beta-1 (P05556 whole entry, one chain of several): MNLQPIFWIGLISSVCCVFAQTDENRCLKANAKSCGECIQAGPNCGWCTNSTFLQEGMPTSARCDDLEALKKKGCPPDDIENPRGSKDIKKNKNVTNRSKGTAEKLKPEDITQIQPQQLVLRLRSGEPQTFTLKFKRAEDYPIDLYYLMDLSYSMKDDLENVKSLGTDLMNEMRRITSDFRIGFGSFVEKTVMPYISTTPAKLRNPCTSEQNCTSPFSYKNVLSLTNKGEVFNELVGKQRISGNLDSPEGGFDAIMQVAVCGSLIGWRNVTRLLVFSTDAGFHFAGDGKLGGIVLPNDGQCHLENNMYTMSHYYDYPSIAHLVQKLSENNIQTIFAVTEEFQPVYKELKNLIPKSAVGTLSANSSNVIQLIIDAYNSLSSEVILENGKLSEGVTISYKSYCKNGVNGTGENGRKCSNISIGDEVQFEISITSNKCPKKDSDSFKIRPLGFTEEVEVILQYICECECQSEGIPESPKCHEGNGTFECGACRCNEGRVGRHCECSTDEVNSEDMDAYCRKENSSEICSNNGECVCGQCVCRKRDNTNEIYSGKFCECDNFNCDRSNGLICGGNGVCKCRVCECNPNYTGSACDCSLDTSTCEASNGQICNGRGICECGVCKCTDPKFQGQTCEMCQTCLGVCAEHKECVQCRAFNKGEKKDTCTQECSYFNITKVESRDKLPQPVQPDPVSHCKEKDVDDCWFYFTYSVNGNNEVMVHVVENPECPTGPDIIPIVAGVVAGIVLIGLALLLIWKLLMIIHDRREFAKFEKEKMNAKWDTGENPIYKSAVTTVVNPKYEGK

[1] = target: Integrin alpha-4/beta-7 (Homo sapiens) (UniProt P13612+P26010); assay: Percent inhibition of [125I]VCAM-Ig binding to human integrin alpha4-beta7 receptor of RPMI-8866 cells at 100 nM; type: cell-based

Compound | IC50 (Integrin alpha-4/beta-7) [nM] | IC50 (Integrin alpha-4/beta-1) [nM] | inhibition [1] [%]
COc1cccc(OC)c1-c1ccc(C[C@H](NC(=O)C2(S(C)(=O)=O)CCCNC2)C(=O)O)cc1 (stereo partly specified) | 21 | 0.19 | 
CCN(CC)S(=O)(=O)C1(C(=O)N[C@@H](Cc2ccc(-c3ccccc3OC)cc2)C(=O)O)CCCC1 | 54 | 0.97 | 
Cc1ccc(S(=O)(=O)C2(C(=O)N[C@@H](Cc3ccc(-c4ccccc4)cc3)C(=O)O)CCCC2)cc1 |  | 28 | 2
COc1cccc(OC)c1-c1ccc(C[C@H](NC(=O)C2(S(=O)(=O)c3ccccc3)CCCC2)C(=O)O)cc1 | 5 | 0.11 | 
COc1ccccc1-c1ccc(C[C@H](NC(=O)C2(S(=O)(=O)c3ccccc3)CCOCC2)C(=O)O)cc1 | 150 | 0.55 | 
CCN1CCC(C(=O)N[C@@H](Cc2ccc(-c3ccccc3OC)cc2)C(=O)O)(S(=O)(=O)c2ccccc2)CC1 | 1230 | 31 | 
COc1ccccc1-c1ccc(C[C@H](NC(=O)C2(S(=O)(=O)c3ccccc3)CCS(=O)(=O)CC2)C(=O)O)cc1 | 70 | 1.3 | 
COc1cccc(OC)c1-c1ccc(C[C@H](NC(=O)C2(S(=O)(=O)c3ccccc3N3CCCC3)CCCNC2)C(=O)O)cc1 (stereo partly specified) | 388 | 0.39 | 
O=C(O)[C@H](Cc1ccc(-c2ccccc2)cc1)NC(=O)C1(S(=O)(=O)C2CCCCC2)CCCC1 |  | 7 | 16
COc1cccc(OC)c1-c1ccc(C[C@H](NC(=O)C2(S(=O)(=O)c3cccc(Br)c3)CCCNC2)C(=O)O)cc1 (stereo partly specified) | 83 | 0.13 | 
COc1ccccc1-c1ccc(C[C@H](NC(=O)C2(S(=O)(=O)c3ccccc3)CCCN(C)C2)C(=O)O)cc1 (stereo partly specified) | 5790 | 6.6 | 
COc1cccc(OC)c1-c1ccc(C[C@H](NC(=O)C2(S(=O)(=O)c3ccc(F)cc3)CCCC2)C(=O)O)cc1 | 5 | 0.07 | 
O=C(O)[C@H](Cc1ccc(-c2ccccc2)cc1)NC(=O)C1(S(=O)(=O)Cc2ccccc2)CCCC1 |  | 81 | -7
COc1ccccc1-c1ccc(C[C@H](NC(=O)C2(S(=O)(=O)c3ccccc3)CCOC2)C(=O)O)cc1 (stereo partly specified) | 45 | 0.77 | 
COc1cccc(OC)c1-c1ccc(C[C@H](NC(=O)C2(S(=O)(=O)c3ccccc3)CCCCC2)C(=O)O)cc1 | 13 | 0.19 | 
COc1ccccc1-c1ccc(C[C@H](NC(=O)C2(S(=O)(=O)c3ccccc3)CCCNC2)C(=O)O)cc1 (stereo partly specified) | 622 | 0.48 | 
COc1cccc(OC)c1-c1ccc(C[C@H](NC(=O)C2(S(=O)(=O)c3ccc(Br)cc3)CCCNC2)C(=O)O)cc1 (stereo partly specified) | 94 | 0.19 | 
COc1ccccc1-c1ccc(C[C@H](NC(=O)C2(S(=O)(=O)c3ccccc3)CCNCC2)C(=O)O)cc1 | 1900 | 20 | 
CCS(=O)(=O)C1(C(=O)N[C@@H](Cc2ccc(-c3ccccc3OC)cc2)C(=O)O)CCCC1 | 58 | 0.53 | 
CCCCN1CCC(C(=O)N[C@@H](Cc2ccc(-c3ccccc3OC)cc2)C(=O)O)(S(=O)(=O)c2ccccc2)CC1 | 9180 | 51 | 
CCCCCCCCS(=O)(=O)C1(C(=O)N[C@@H](Cc2ccc(-c3ccccc3)cc2)C(=O)O)CCCC1 |  | 150 | 

Continued by falling IC50 (Integrin alpha-4/beta-1), values first:

IC50 (Integrin alpha-4/beta-7) [nM] | IC50 (Integrin alpha-4/beta-1) [nM] | inhibition [1] [%] | Compound
7340 | 680 |  | O=C(O)[C@H](Cc1ccc(-c2ccccc2)cc1)NC(=O)C1(S(=O)(=O)c2ccccc2)Cc2ccccc2C1
 | 105 | 8 | O=C(O)[C@H](Cc1ccc(-c2ccccc2)cc1)NC(=O)C1(S(=O)(=O)c2ccccc2Br)CCCC1
 | 65 | 14 | O=C(O)[C@H](Cc1ccc(-c2ccccc2)cc1)NC(=O)C1(S(=O)(=O)Cc2ccccc2)CCCCC1
9220 | 56 |  | COc1ccccc1-c1ccc(C[C@H](NC(=O)C2(S(=O)(=O)c3ccccc3)CCN(C(C)(C)C)CC2)C(=O)O)cc1
 | 44 | 19 | O=C(O)[C@H](Cc1ccc(-c2ccccc2)cc1)NC(=O)C1(S(=O)(=O)c2ccc(Br)cc2)CCCCC1
 | 28 | 18 | O=C(O)[C@H](Cc1ccc(-c2ccccc2)cc1)NC(=O)C1(S(=O)(=O)c2ccccc2)CCCC1
1260 | 23 |  | COc1ccccc1-c1ccc(C[C@H](NC(=O)C2(S(=O)(=O)c3ccccc3)CCN(c3ccccc3)CC2)C(=O)O)cc1
521 | 15 |  | COc1ccccc1-c1ccc(C[C@H](NC(=O)C2(S(=O)(=O)Nc3ccccc3)CCCC2)C(=O)O)cc1
318 | 4.4 |  | COc1ccccc1-c1ccc(C[C@H](NC(=O)C2(S(=O)(=O)c3ccccc3)CC[S+]([O-])CC2)C(=O)O)cc1 (stereo partly specified)
128 | 4.1 |  | COc1ccccc1-c1ccc(C[C@H](NC(=O)C2(S(=O)(=O)c3ccccc3)CCSCC2)C(=O)O)cc1
2000 | 3 |  | COc1ccccc1-c1ccc(C[C@H](NC(=O)C2(S(=O)(=O)c3ccccc3)CCN(C)CC2)C(=O)O)cc1
147 | 1.2 |  | COc1ccccc1-c1ccc(C[C@H](NC(=O)C2(S(=O)(=O)C3CCCC3)CCCC2)C(=O)O)cc1
16 | 1.2 |  | COc1ccccc1-c1ccc(C[C@H](NC(=O)C2(S(=O)(=O)c3ccccc3)CCC2)C(=O)O)cc1
466 | 1.1 |  | COc1cccc(OC)c1-c1ccc(C[C@H](NC(=O)C2(S(=O)(=O)c3ccccc3)CCN(C)CC2)C(=O)O)cc1
436 | 0.77 |  | COc1cccc(OC)c1-c1ccc(C[C@H](NC(=O)C2(S(=O)(=O)Cc3ccccc3)CCCNC2)C(=O)O)cc1 (stereo partly specified)
257 | 0.67 |  | COc1cccc(OC)c1-c1ccc(C[C@H](NC(=O)C2(S(=O)(=O)CCN3CCOCC3)CCCNC2)C(=O)O)cc1 (stereo partly specified)
97 | 0.46 |  | COc1cccc(OC)c1-c1ccc(C[C@H](NC(=O)C2(S(=O)(=O)c3cn(C)cn3)CCCNC2)C(=O)O)cc1 (stereo partly specified)
179 | 0.37 |  | COc1cccc(OC)c1-c1ccc(C[C@H](NC(=O)C2(S(=O)(=O)CCNCCCN(C)C)CCCNC2)C(=O)O)cc1 (stereo partly specified)
536 | 0.36 |  | COc1cccc(OC)c1-c1ccc(C[C@H](NC(=O)C2(S(=O)(=O)c3ccc(N4CCCC4)cc3)CCCNC2)C(=O)O)cc1 (stereo partly specified)
40 | 0.27 |  | COc1ccccc1-c1ccc(C[C@H](NC(=O)C2(S(=O)(=O)c3ccc(F)cc3)CCCC2)C(=O)O)cc1
5 | 0.22 |  | COc1cccc(OC)c1-c1ccc(C[C@H](NC(=O)C2(S(=O)(=O)c3ccccc3)CCSCC2)C(=O)O)cc1
3.2 | 0.17 |  | COc1cccc(OC)c1-c1ccc(C[C@H](NC(=O)C2(S(=O)(=O)c3ccccc3)CCC2)C(=O)O)cc1
96 | 0.15 |  | COc1cccc(OC)c1-c1ccc(C[C@H](NC(=O)C2(S(=O)(=O)c3ccccc3Br)CCCNC2)C(=O)O)cc1 (stereo partly specified)
46 | 0.14 |  | COc1cccc(OC)c1-c1ccc(C[C@H](NC(=O)C2(S(=O)(=O)c3cncn3C)CCCNC2)C(=O)O)cc1 (stereo partly specified)
5.2 | 0.1 |  | COc1cccc(OC)c1-c1ccc(C[C@H](NC(=O)C2(S(=O)(=O)c3ccccc3)CCOC2)C(=O)O)cc1 (stereo partly specified)
